Experimental data: article PMC7453296 (Journal of Pesticide Science, 2020)

Columns and labels:
[1] = target: HcbA3C-His (HcbA3, NADH:FMN oxidoreductase); experiment: fluorescence quenching titration of flavin; assay type: binding, Nocardioides sp. PD653; details: 50 nM FMN, 20 mM KPi pH 7.5, 20°C; oxidized FMN
[2] = system: HcbA3C-His (HcbA3, NADH:FMN oxidoreductase); experiment: NADH oxidation at […] nm, steady-state ping-pong fit; assay type: biochemical, Nocardioides sp. PD653; details: 20 mM KPi pH 7.5, 20°C, ping-pong bi-bi

SMILES | Kd [1] [µM] | Km ([2]; NADH 10–120 µM) [µM] | Km ([2]; FMN 1–8 µM) [µM]
Cc1cc2nc3c(=O)[nH]c(=O)nc-3n(C[C@H](O)[C@H](O)[C@H](O)COP(=O)(O)O)c2cc1C [FMN] | 0.75 ± 0.17 | 4.43 ± 0.69 | –
NC(=O)C1=CN([C@@H]2O[C@H](COP(=O)(O)OP(=O)(O)OC[C@H]3O[C@@H](n4cnc5c(N)ncnc54)[C@H](O)[C@@H]3O)[C@@H](O)[C@H]2O)C=CC1 [NADH] | – | – | 51.7 ± 11.6
